Measurements as given in US10865216B2, “Tricyclic Gyrase inhibitors” (MERCK SHARP & DOHME CORP., priority 2012, dated 2020).
Converted amounts (≈) assume the structure as drawn. Read-outs that look alike come from different tables or passages of the source. Blank lines part the entries; values can stand above or below the compound they belong to.

What was measured:
S. aureus ATCC 13709 = test: MIC, S. aureus ATCC 13709; format: cell-based; details: for MIC: Staphylococcus aureus, read-out: SA MIC
E. coli ATCC 25922 = test: MIC, E. coli ATCC 25922; format: cell-based; details: for EC8 MIC / MIC: EC8 not defined; for EC MIC: Table 13, L = NH; for MIC: Escherichia coli, read-out: EC8 MIC
[1] = Table 11, compounds wherein L = CH2
[2] = Table 12, Z is C and connected to R4
[3] = ATCC13709, Table 15, R2 is joined to R4
[4] = ATCC25922, Table 15, R2 is joined to R4
[5] = ATCC13709, Table 16, new R4 substituents
[6] = ATCC25922, Table 16, new R4 substituents

Compound: CNc1cc(F)cc2c1[nH]c1nc(Cc3cncnc3)nc(N3C[C@H](N)C4(CC4)C3)c12
SA MIC (S. aureus ATCC 13709; [1]): ≤ 0.5 µg/mL
EC8 MIC (E. coli ATCC 25922; Table 11, L = CH2): 1 µg/mL

Compound: CNc1cc(F)cc2c1[nH]c1nc(Cc3cnc(C)nc3)nc(N3CC[C@@]4(C[C@@H]4N)C3)c12
SA MIC (S. aureus ATCC 13709; [1]): 1 µg/mL
EC8 MIC (E. coli ATCC 25922; Table 11, L = CH2): 8 µg/mL

Compound: CNc1cc(F)cc2c1[nH]c1nc(Cc3cnc(C)nc3)nc(N3CC4CC(N)C4C3)c12 (centres unmarked)
SA MIC (S. aureus ATCC 13709; [1]): ≤ 0.5 µg/mL
EC8 MIC (E. coli ATCC 25922; Table 11, L = CH2): 1 µg/mL

Compound: CNc1cc(F)cc2c1[nH]c1nc(Cc3cnc(C)nc3)nc(N3CC4(CCC4N)C3)c12 (centres unmarked)
SA MIC (S. aureus ATCC 13709; [1]): ≤ 0.5 µg/mL
EC8 MIC (E. coli ATCC 25922; Table 11, L = CH2): 1 µg/mL

Compound: CNc1cc(F)c2c3c1[nH]c1nc(Oc4cnc(C)nc4)nc(c13)-c1ccccc1NC2
SA MIC (S. aureus ATCC 13709; [2]): ≤ 0.5 µg/mL
EC8 MIC (E. coli ATCC 25922; [2]): ≤ 0.5 µg/mL

Compound: CNc1cc(F)c2c3c1[nH]c1nc(Oc4cnc(C)nc4)nc(c13)N1CCC[C@H]1CNC2
SA MIC (S. aureus ATCC 13709; [2]): 16 µg/mL
EC8 MIC (E. coli ATCC 25922; [2]): > 16 µg/mL

Compound: CNc1cc(F)c2c3c1[nH]c1nc(Oc4cnc(C)nc4)nc(c13)-c1ccc(Cl)cc1NC2
SA MIC (S. aureus ATCC 13709; [2]): ≤ 0.5 µg/mL
EC8 MIC (E. coli ATCC 25922; [2]): 4 µg/mL

Compound: CNc1cc(F)c2c3c1[nH]c1nc(Oc4cnc(N)nc4)nc(c13)-c1ccccc1NC2
SA MIC (S. aureus ATCC 13709; [2]): ≤ 0.5 µg/mL
EC8 MIC (E. coli ATCC 25922; [2]): > 16 µg/mL

Compound: CNc1cc(F)cc2c1[nH]c1nc(Nc3cnc(C)nc3)nc(N3C[C@H]4CC3C[C@H]4N)c12
SA MIC (S. aureus ATCC 13709; Table 13, L = NH): ≤ 0.5 µg/mL
EC MIC (E. coli ATCC 25922): ≤ 0.5 µg/mL

Compound: CNc1cc(F)cc2c1[nH]c1nc(Nc3cnc4c(c3)nnn4C(C)C)nc(N3C[C@H]4CC3C[C@H]4N)c12
SA MIC (S. aureus ATCC 13709; Table 13, L = NH): ≤ 0.5 µg/mL
EC MIC (E. coli ATCC 25922): 1 µg/mL

Compound: CNc1cc(F)cc2c1[nH]c1nc(Nc3cccnc3)nc(N3C[C@H]4CC3C[C@H]4N)c12
SA MIC (S. aureus ATCC 13709; Table 13, L = NH): ≤ 0.5 µg/mL
EC MIC (E. coli ATCC 25922): ≤ 0.5 µg/mL

Compound: CNc1cc(F)cc2c1[nH]c1nc(Nc3cnc4ccnn4c3)nc(N3C[C@H]4CC3C[C@H]4N)c12
SA MIC (S. aureus ATCC 13709; Table 13, L = NH): ≤ 0.5 µg/mL
EC MIC (E. coli ATCC 25922): ≤ 0.5 µg/mL

Compound: CNc1cc(F)cc2c1[nH]c1nc3nc(c12)NCCCCCCNC(=O)c1cncc(c1)O3
MIC (S. aureus ATCC 13709; [3]): ≤ 0.5 µg/mL
MIC (E. coli ATCC 25922; [4]): 1 µg/mL (≈ 2.22 µM)

Compound: CNc1cc(F)cc2c1[nH]c1nc3nc(c12)NCCCCCCNC(=O)CSc1ncc(cn1)O3
MIC (S. aureus ATCC 13709; [3]): ≤ 0.5 µg/mL
MIC (E. coli ATCC 25922; [4]): > 16 µg/mL

Compound: CNc1cc(F)cc2c1[nH]c1nc(Oc3cnc(C)nc3)nc(N3CCC(C)(N)C3)c12 (centres unmarked)
MIC (S. aureus ATCC 13709; [5]): ≤ 0.5 µg/mL
MIC (E. coli ATCC 25922; [6]): ≤ 0.5 µg/mL

Compound: CNc1cc(F)cc2c1[nH]c1nc(Oc3cnc(C)nc3)nc(N3CCC(N)(CN)C3)c12 (centres unmarked)
MIC (S. aureus ATCC 13709; [5]): ≤ 0.5 µg/mL
MIC (E. coli ATCC 25922; [6]): 16 µg/mL (≈ 36.6 µM)

Compound: CNc1cc(F)cc2c1[nH]c1nc(Oc3cnc(C)nc3)nc(N3CCC(C)(CN)C3)c12 (centres unmarked)
MIC (S. aureus ATCC 13709; [5]): ≤ 0.5 µg/mL
MIC (E. coli ATCC 25922; [6]): ≤ 0.5 µg/mL

Second part, the compound after the results:

SA MIC (S. aureus ATCC 13709; [1]): ≤ 0.5 µg/mL
EC8 MIC (E. coli ATCC 25922; Table 11, L = CH2): 2 µg/mL
Compound: CNc1cc(F)cc2c1[nH]c1nc(Cc3cnc(C)nc3)nc(N3CC[C@@]4(C[C@H]4N)C3)c12

SA MIC (S. aureus ATCC 13709; [2]): 4 µg/mL
EC8 MIC (E. coli ATCC 25922; [2]): 8 µg/mL
Compound: CNc1cc(F)c2c3c1[nH]c1nc(Oc4cnc(C)nc4)nc(c13)NC(=N)NC2

SA MIC (S. aureus ATCC 13709; [2]): ≤ 0.5 µg/mL
EC8 MIC (E. coli ATCC 25922; [2]): > 16 µg/mL
Compound: CNc1cc(F)c2c3c1[nH]c1nc(Oc4cncnc4)nc(c13)-c1ccccc1NC2

SA MIC (S. aureus ATCC 13709; Table 13, L = NH): ≤ 0.5 µg/mL
EC MIC (E. coli ATCC 25922): 1 µg/mL
Compound: CCOC(=O)c1csc(Nc2nc(N3C[C@H]4CC3C[C@H]4N)c3c(n2)[nH]c2c(NC)cc(F)cc23)n1

SA MIC (S. aureus ATCC 13709; Table 13, L = NH): ≤ 0.5 µg/mL
EC MIC (E. coli ATCC 25922): 16 µg/mL
Compound: CNc1cc(F)cc2c1[nH]c1nc(Nc3cnc4nccnc4c3)nc(N3C[C@H]4CC3C[C@H]4N)c12

MIC (S. aureus ATCC 13709; [3]): ≤ 0.5 µg/mL
MIC (E. coli ATCC 25922; [4]): 2 µg/mL (≈ 4.27 µM)
Compound: CNc1cc(F)cc2c1[nH]c1nc3nc(c12)NCCCCNC(=O)CSc1ncc(cn1)O3

MIC (S. aureus ATCC 13709; [3]): 2 µg/mL (≈ 3.79 µM)
MIC (E. coli ATCC 25922; [4]): 8 µg/mL (≈ 15.2 µM)
Compound: CNc1cc(F)cc2c1[nH]c1nc3nc(c12)N[C@@H](CN)COCCCNC(=O)CSc1ncc(cn1)O3

MIC (S. aureus ATCC 13709; [5]): ≤ 0.5 µg/mL
MIC (E. coli ATCC 25922; [6]): 0.5 µg/mL (≈ 1.08 µM)
Compound: CNc1cc(F)cc2c1[nH]c1nc(Oc3cnc4ccoc4c3)nc(N3CCC(C)(CN)C3)c12 (centres unmarked)

MIC (S. aureus ATCC 13709; [5]): ≤ 0.5 µg/mL
MIC (E. coli ATCC 25922; [6]): 8 µg/mL (≈ 17.8 µM)
Compound: CNc1cc(F)cc2c1[nH]c1nc(Oc3cnc(C)nc3)nc(N3CCC(C4CNC4)C3)c12 (centres unmarked)

MIC (S. aureus ATCC 13709; [5]): ≤ 0.5 µg/mL
MIC (E. coli ATCC 25922; [6]): ≤ 0.5 µg/mL
Compound: CNc1cc(F)cc2c1[nH]c1nc(Oc3cnc(C)nc3)nc(N3CCC(F)(CN)C3)c12 (centres unmarked)

MIC (S. aureus ATCC 13709; [5]): 1 µg/mL (≈ 2.45 µM)
MIC (E. coli ATCC 25922; [6]): > 16 µg/mL
Compound: CNc1cc(F)cc2c1[nH]c1nc(Oc3cnc(C)nc3)nc(N3CCCC3=O)c12

MIC (S. aureus ATCC 13709; [5]): ≤ 0.5 µg/mL
MIC (E. coli ATCC 25922; [6]): 4 µg/mL (≈ 8.78 µM)
Compound: CNc1cc(F)cc2c1[nH]c1nc(Oc3cnc(C)nc3)nc(-c3ccc(C4(N)CC4)cc3)c12

MIC (S. aureus ATCC 13709; [5]): ≤ 0.5 µg/mL
MIC (E. coli ATCC 25922; [6]): 1 µg/mL (≈ 2.1 µM)
Compound: CNc1cc(F)cc2c1[nH]c1nc(Oc3cnc(C)nc3)nc(N3CCC(N)(C(F)(F)F)C3)c12 (centres unmarked)

MIC (S. aureus ATCC 13709; [5]): ≤ 0.5 µg/mL
MIC (E. coli ATCC 25922; [6]): ≤ 0.5 µg/mL
Compound: CCC1(CN)CCN(c2nc(Oc3cnc(C)nc3)nc3[nH]c4c(NC)cc(F)cc4c23)C1 (centres unmarked)
